In patent US8871722B2, “Perhydrolase epitopes” (Danisco US Inc., priority 2005, dated 2014):

System: human CD4+ T-cells

Molecule: QLIFEGGEQKTTELA (listed as Mycobacterium smegmatis) [SEQ ID NO:53]
- identification of peptide T-cell epitope (significant response in donor pool) (5 μM peptide, human donors): one peptide of interest was identified

Molecule: tetanus toxoid [reference compound]
- positive control proliferative response (tetanus toxoid at approximately 5 Lf/mL): robust positive control responses

B1: perhydrolase: wild-type M. smegmatis perhydrolase enzyme, amino acid sequence SEQ ID NO:2 (protein, listed as Mycobacterium smegmatis)
chain: MAKRILCFGDSLTWGWVPVEDGAPTERFAPDVRWTGVLAQQLGADFEVIEEGLSARTTNIDDPTDPRLNGASYLPSCLATHLPLDLVIIMLGTNDTKAYFRRTPLDIALGMSVLVTQVLTSAGGVGTTYPAPKVLVVSPPPLAPMPHPWFQLIFEGGEQKTTELARVYSALASFMKVPFFDAGSVISTDGVDGIHFTEANNRDLGVALAEQVRSLL
- structure index value (relative immunogenicity) (scale 0 to 2, the closer to 2.0 the more immunogenic): < 0.5
